Experimental data: the supplement of paper PMC10307832

Assays:
Assay in all cases: relative viability (nuclei count vs DMSO), 5 days (fraction); higher = more cells survive
[1] = compound: CC(C)C[C@H](NC(=O)[C@H](Cc1ccccc1)NC(=O)c1cnccn1)B(O)O [Bortezomib] + O=C(c1cc(Cc2n[nH]c(=O)c3ccccc23)ccc1F)N1CCN(C(=O)C2CC2)CC1 [Olaparib] (partner 8 µM)
Summary of the method: (§1)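 Lung cancer cell lines, seeded in 1536-well plates, were treated the following day by pin tool with a single drug or with five library-drug doses (not always all listed) in √10 steps on top of a fixed anchor-drug dose. Cells were fixed and nuclei stained in one step after 5 days, and nuclei were counted. Relative viability is the nuclei count for treated wells divided by that for vehicle wells, reported as medians of duplicate plates.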

[2] = compound: CC(C)C[C@H](NC(=O)[C@H](Cc1ccccc1)NC(=O)c1cnccn1)B(O)O [Bortezomib] + Cc1cc(Nc2cc(N3CCN(C)CC3)nc(Sc3ccc(NC(=O)C4CC4)cc3)n2)n[nH]1 [Tozasertib] (partner 0.1 µM)
Summary of the method: as §1

[3] = compound: COC1=CC(c2cc3ccccc3[nH]2)=N/C1=C\c1[nH]c(C)cc1C [Obatoclax] + Cc1nc(Nc2ncc(C(=O)Nc3c(C)cccc3Cl)s2)cc(N2CCN(CCO)CC2)n1 [Dasatinib] (partner 0.075 µM)
Summary of the method: as §1

[4] = compound: COC1=CC(c2cc3ccccc3[nH]2)=N/C1=C\c1[nH]c(C)cc1C [Obatoclax] + Cc1nc(NC(=O)N2CCC[C@H]2C(N)=O)sc1-c1ccnc(C(C)(C)C(F)(F)F)c1 [Alpelisib] (partner 2 µM)
Summary of the method: as §1

| Cell Line | relative viability ([1]; first compound 0.0002 µM) | relative viability ([1]; first compound 0.000632 µM) | relative viability ([1]; first compound 0.002 µM) | relative viability ([1]; first compound 0.006325 µM) | relative viability ([1]; first compound 0.02 µM) | relative viability ([2]; first compound 0.0002 µM) | relative viability ([2]; first compound 0.000632 µM) | relative viability ([2]; first compound 0.002 µM) | relative viability ([2]; first compound 0.006325 µM) | relative viability ([2]; first compound 0.02 µM) | relative viability ([3]; first compound 0.01 µM) | relative viability ([3]; first compound 0.03162 µM) | relative viability ([3]; first compound 0.1 µM) | relative viability ([3]; first compound 0.3162 µM) | relative viability ([3]; first compound 1 µM) | relative viability ([4]; first compound 0.01 µM) | relative viability ([4]; first compound 0.03162 µM) | relative viability ([4]; first compound 0.1 µM) | relative viability ([4]; first compound 0.3162 µM) | relative viability ([4]; first compound 1 µM) |
| --- | --- | --- | --- | --- | --- | --- | --- | --- | --- | --- | --- | --- | --- | --- | --- | --- | --- | --- | --- | --- |
| LU99A | 0.238 | 0.26 | 0.242 | 0.154 | 0.122 | 0.279 | 0.29 | 0.247 | 0.252 | 0.17 | 0.471 | 0.568 | 0.575 | 0.434 | 0.261 | 0.626 | 0.641 | 0.567 | 0.3 | 0.2 |
| LXF-289 | 1.01 | 1.03 | – | 0.0822 | 0.0818 | 0.166 | 0.183 | 0.157 | 0.0616 | 0.046 | 0.23 | 0.23 | 0.0916 | 0.221 | 0.154 | 1.01 | 0.944 | 1.04 | 1.04 | 0.963 |
| NCI-H23 | 0.362 | – | 0.247 | 0.0989 | 0.0819 | 0.306 | 0.366 | 0.352 | 0.111 | 0.107 | 0.826 | 0.838 | 0.825 | 0.757 | 0.306 | 0.667 | 0.607 | 0.691 | 0.604 | 0.569 |
| NCI-H322M | 0.755 | 0.704 | 0.825 | 0.586 | 0.452 | 0.468 | – | 0.442 | 0.278 | 0.308 | 0.257 | 0.259 | – | 0.259 | 0.28 | 0.705 | 0.819 | 0.793 | 0.889 | 0.781 |
| NCI-H358 | 0.773 | 0.541 | 0.46 | 0.0684 | 0.076 | 0.101 | 0.114 | 0.103 | 0.0691 | 0.0756 | 0.142 | 0.193 | 0.218 | 0.132 | 0.114 | 0.925 | 0.848 | 0.635 | 0.336 | 0.283 |
| NCI-H441 | 0.446 | 0.601 | 0.165 | 0.11 | 0.102 | 0.66 | 0.799 | 0.383 | 0.186 | 0.191 | 0.537 | 0.634 | 0.542 | 0.402 | 0.208 | 0.662 | 0.822 | 0.632 | 0.419 | 0.327 |
| NCI-H460 | 0.355 | 0.422 | 0.392 | 0.0694 | 0.0397 | 0.386 | 0.366 | 0.616 | 0.304 | 0.0187 | 0.497 | 0.385 | 0.384 | 0.343 | 0.21 | 0.509 | 0.481 | 0.309 | 0.0452 | 0.0244 |
| NCI-H520 | 0.333 | 0.334 | 0.218 | 0.117 | 0.116 | 0.482 | 0.401 | 0.262 | 0.24 | 0.232 | 0.196 | 0.214 | 0.205 | 0.22 | 0.194 | 0.901 | 0.953 | 0.92 | 0.7 | 0.835 |
